Measurements reported in patent US6063803A, “Octahydropyrrolo-[3,4-c]carbazoles useful as analgesic agents” (Ortho-McNeil Pharmaceutical, Inc., priority 1999, dated 2000).
Where a name gives a salt, the structure may show the parent alone. Read-outs that look alike come from different tables or passages of the source.

Experiments:
[1] = mouse acetylcholine bromide-induced abdominal constriction assay; format: in vivo, mice (Male, Cr1:CD-1); conditions: Mus musculus; for % of mice protected from abdominal constriction (non-responders) at 30 mg/kg / responders at 30 mg/kg: 0.5 h, acetylcholine bromide 5.5 mg/kg i.p. 30 min later
Method: The analgesic activity of compounds of Formula I were determined in the following in vivo assay. The procedure was run essentially as described by H. Collier et al. in B. J. Pharmacol. Chemother., 32: 295-310, 1968, with minor modifications. Mice (Male, Cr1:CD-1, Charles River Laboratories) were used in the following example. The test drugs or appropriate vehicle were administered orally (10 mL/kg, p.o.) or subcutaneously (10 mL/kg, s.c.) and 30 minutes later the animal received an intraperitoneal (i.p.) injection of 5.5 mg/kg acetylcholine bromide. The mice were then placed in glass bell jars and observed for a ten minute observation period for the occurrence of an abdominal constriction response (defined as a wave of constriction and elongation passing caudally along the abdominal wall, accompanied by a twisting of the trunk and followed by extension of the hind limbs). The percent inhibition of this response to antinociceptive stimulus (equated to % analgesia) was calculated as follows: The % inhibition of response, i.e., % analgesia is equal to the number of non-responding drug-treated animals×100 divided by the number of animals in the group.
The ED50 values and their 95% fiducial limits were determined by a computer assisted probit analysis. […] This effect lasted for 4-5 hours.
Table A lists the % inhibition for some compounds of the invention. Unless otherwise indicated the compounds were administered s.c. at 30 mg/kg. [drawing 63]

[2] = rat air-induced writhing (abdominal constriction) assay; format: in vivo, rats; conditions: Rattus norvegicus, po
Method: The analgesic activity was determined in another model using rats as the test animal. The procedure was essentially described by P. VonVoightlander et al. in Air-induced Writhing, a Rapid Broad Spectrum Assay for Analgesics, Drug Dev. Res., 2, 577-81, (1982). The test compound or vehicle was administered p.o. (2 mL/kg) and after 30 min, the animals received an i.p. injection of air (10 mL). The animals were placed into individual observation chambers and observed for 30 min for the occurrence of abdominal constriction as defined above. The percent inhibition of this response was calculated as follows. The % inhibition of response, i.e., % analgesia is equal to the number nonresponding drug-treated animals×100 divided by the number of animals in the group. […] This effect lasted for 2-3 hours.

[3] = mouse hot plate assay (48° C.); format: in vivo, mice; conditions: Mus musculus, po, 0.5 h
Method: The test was essentially described by N. Eddy and D. Leimbach, Synthetic Analgesics II Dithienylbutenyl- and Dithienylbutylamines, J. Pharmacol. Exp. Ther., 107, 385-93 (1953) and J. O'Callaghan and S. Holtzman, Qualification of the Analgesic Activity of Narcotic Antagonists by a Modified Hot-Plate Procedure, J. Pharmacol. Exp. Ther, 192, 497-505 (1975), with minor modifications. Mice were placed on a heated surface (48° C.) and the time interval (seconds) between placement and a shaking, licking, or tucking of the hind paw was recorded as the predrug latency response. This procedure was repeated 30 minutes after the administration of a test compound (p.o., 10 mL/kg). The percent maximum possible antinociceptive effect (% MPE) was determined using the following formula: % MPE=100×(Test latency-Predrug latency)/(Cutoff time-Predrug Latency), using the predrug latency of each animal and cutoff time established to prevent injury to the animal. The cutoff time was 90s.
The ED50 value and 95% confidence intervals were determined using a computer-assisted linear regression analysis of the dose-response curve, including an analysis of variance test for linearity. Oral dosing of Compound 58 produced an analgesic effect after 15 min. This effect lasted for one hour.

[4] = sc, 30 mg/kg s.c., read-out: % inhibition @ 30 mg/kg
[5] = 30 mg/kg po, read-out: % inhibition @ 30 mg/kg (po)

Question: Which % of mice protected from abdominal constriction (non-responders) at 30 mg/kg [1, 4] does the source give for CN1C[C@@H]2C(c3ccccc3)Cc3[nH]c4ccccc4c3[C@@H]2C1 (mixture of isomers) [Compound 75, (±)-3aα,10cα-1,2,3,3a,4,5,6,10c-Octahydro-2-methyl-4-phenylpyrrolo-[3,4-c]carbazole Fumarate [1.0:0.55]] here?
Answer: The % of mice protected from abdominal constriction (non-responders) at 30 mg/kg was 100%.

Question: Which responders at 30 mg/kg [1, 5] does the source give for CN1C[C@@H]2CCc3[nH]c4cc(F)ccc4c3[C@@H]2C1 (relative stereo) [Compound 30, (±)-3aα,10cα-4,5,6,10c-Octahydro-8-fluoro-2-methylpyrrolo[3,4-c]carbazole Fumarate [1:1.5]] here?
Answer: The responders at 30 mg/kg was 100%.

Question: Which responders at 30 mg/kg [1, 4] does the source give for CN1C[C@@H]2CCc3[nH]c4ccc(F)cc4c3[C@@H]2C1 (relative stereo) [Compound 31] here?
Answer: Its responders at 30 mg/kg is 93%.

Question: With COc1cccc2c3c([nH]c12)CC[C@H]1CN(C)C[C@@H]31 (relative stereo) [Compound 32] as the molecule, how does the % of mice protected from abdominal constriction (non-responders) at 30 mg/kg [1, 4] read?
Answer: Its % of mice protected from abdominal constriction (non-responders) at 30 mg/kg is 100%.

Question: With CN1C[C@@H]2CCc3[nH]c4c(Cl)ccc(Cl)c4c3[C@@H]2C1 (relative stereo) [Compound 33] as the molecule, how does the % of mice protected from abdominal constriction (non-responders) at 30 mg/kg [1, 4] read?
Answer: Its % of mice protected from abdominal constriction (non-responders) at 30 mg/kg is 33%.

Question: For Cc1ccc2c3c([nH]c2c1C)CC[C@H]1CN(C)C[C@@H]31 (relative stereo) [Compound 34], which % of mice protected from abdominal constriction (non-responders) at 30 mg/kg [1, 4] is on record?
Answer: The % of mice protected from abdominal constriction (non-responders) at 30 mg/kg was 100%.

Question: Which responders at 30 mg/kg [1, 4] does the source give for CN1C[C@@H]2CCc3[nH]c4c(Cl)cccc4c3[C@@H]2C1 (relative stereo) [Compound 35] here?
Answer: The responders at 30 mg/kg was 93%.

Question: For CN1C[C@@H]2CCc3[nH]c4ccc(Br)cc4c3[C@@H]2C1 (relative stereo) [Compound 36], which responders at 30 mg/kg [1, 4] is on record?
Answer: Its responders at 30 mg/kg is 100%.

Question: For CN1C[C@@H]2CCc3[nH]c4cc(Cl)ccc4c3[C@@H]2C1 (relative stereo) [Compound 37], which responders at 30 mg/kg [1, 4] is on record?
Answer: The responders at 30 mg/kg was 100%.

Question: Which responders at 30 mg/kg [1, 5] does the source give for CN1C[C@@H]2CCc3[nH]c4cccc(Cl)c4c3[C@@H]2C1 (relative stereo) [Compound 38] here?
Answer: Its responders at 30 mg/kg is 87%.

Question: With CC(C)c1ccc2[nH]c3c(c2c1)[C@@H]1CN(C)C[C@@H]1CC3 (relative stereo) [Compound 39] as the molecule, how does the % of mice protected from abdominal constriction (non-responders) at 30 mg/kg [1, 4] read?
Answer: Its % of mice protected from abdominal constriction (non-responders) at 30 mg/kg is 27%.

Question: Which responders at 30 mg/kg [1, 5] does the source give for Cc1cccc2c3c([nH]c12)CC[C@H]1CN(C)C[C@@H]31 (relative stereo) [Compound 40, (±)-3aα,10cα,-1,2,3,3a,4,5,6,10c-octahydro-2,7-dimethylpyrrolo[3,4-c]carbazole] here?
Answer: Its responders at 30 mg/kg is 87%.

Question: Which % of mice protected from abdominal constriction (non-responders) at 30 mg/kg [1, 4] does the source give for CN1C[C@@H]2CCc3[nH]c4cc(C(F)(F)F)ccc4c3[C@@H]2C1 (relative stereo) [Compound 41] here?
Answer: Its % of mice protected from abdominal constriction (non-responders) at 30 mg/kg is 100%.

Question: Which % of mice protected from abdominal constriction (non-responders) at 30 mg/kg [1, 4] does the source give for CN1C[C@@H]2CCc3[nH]c4cccc(C(F)(F)F)c4c3[C@@H]2C1 (relative stereo) [Compound 42] here?
Answer: The % of mice protected from abdominal constriction (non-responders) at 30 mg/kg was 60%.

Question: For CN1C[C@@H]2CCc3[nH]c4cccc(F)c4c3[C@@H]2C1 (relative stereo) [Compound 44], which responders at 30 mg/kg [1, 5] is on record?
Answer: The responders at 30 mg/kg was 100%.

Question: For CN1C[C@@H]2CCc3[nH]c4c(Br)cccc4c3[C@@H]2C1 (relative stereo) [Compound 45], which responders at 30 mg/kg [1, 4] is on record?
Answer: The responders at 30 mg/kg was 73%.

Question: Which % of mice protected from abdominal constriction (non-responders) at 30 mg/kg [1, 4] does the source give for CCc1cccc2c3c([nH]c12)CC[C@H]1CN(C)C[C@@H]31 (relative stereo) [Compound 46] here?
Answer: Its % of mice protected from abdominal constriction (non-responders) at 30 mg/kg is 100%.

Question: For CN1C[C@@H]2CCc3[nH]c4c(F)cccc4c3[C@@H]2C1 (relative stereo) [Compound 47], which responders at 30 mg/kg [1, 5] is on record?
Answer: Its responders at 30 mg/kg is 93%.

Question: For CN1C[C@@H]2CCc3[nH]c4c(C(F)(F)F)cccc4c3[C@@H]2C1 (relative stereo) [Compound 48], which % of mice protected from abdominal constriction (non-responders) at 30 mg/kg [1, 4] is on record?
Answer: The % of mice protected from abdominal constriction (non-responders) at 30 mg/kg was 100%.

Question: Which % of mice protected from abdominal constriction (non-responders) at 30 mg/kg [1, 4] does the source give for Cc1cc(C)c2c3c([nH]c2c1)CC[C@H]1CN(C)C[C@@H]31 (relative stereo) [Compound 49] here?
Answer: Its % of mice protected from abdominal constriction (non-responders) at 30 mg/kg is 100%.

Question: With CN1C[C@@H]2CCc3[nH]c4cc(F)cc(F)c4c3[C@@H]2C1 (relative stereo) [Compound 50] as the molecule, how does the % of mice protected from abdominal constriction (non-responders) at 30 mg/kg [1, 4] read?
Answer: Its % of mice protected from abdominal constriction (non-responders) at 30 mg/kg is 100%.

Question: Which % of mice protected from abdominal constriction (non-responders) at 30 mg/kg [1, 4] does the source give for CC(C)(C)N1C[C@@H]2CCc3[nH]c4ccccc4c3[C@@H]2C1 (relative stereo) [Compound 53] here?
Answer: The % of mice protected from abdominal constriction (non-responders) at 30 mg/kg was 100%.

Question: For c1ccc2c3c([nH]c2c1)CC[C@H]1CNC[C@@H]31 (relative stereo) [Compound 64, (±)-3aα,10cα-4,5,6,10c-Octahydropyrrolo[3,4-c]carbazole], which responders at 30 mg/kg [1, 4] is on record?
Answer: The responders at 30 mg/kg was 80%.

Question: Which % of mice protected from abdominal constriction (non-responders) at 30 mg/kg [1, 5] does the source give for CC(C)N1C[C@@H]2CCc3[nH]c4ccccc4c3[C@@H]2C1 (relative stereo) [Compound 65, (±)-3aα,10cα-4,5,6,10c-Octahydro-2-(1-methylethyl)pyrrolo[3,4-c]carbazole Hydrochloride Hydrate [1.0:1.0:0.13]] here?
Answer: The % of mice protected from abdominal constriction (non-responders) at 30 mg/kg was 93%.

Question: With C=CCN1C[C@@H]2CCc3[nH]c4ccccc4c3[C@@H]2C1 (relative stereo) [Compound 66, (±)-3aα,10cα-1,2,3,3a,4,5,6,10c-Octahydro-2-(propenyl)pyrrolo[3,4-c]carbazole Fumarate [1:0.6]] as the molecule, how does the % of mice protected from abdominal constriction (non-responders) at 30 mg/kg [1, 4] read?
Answer: Its % of mice protected from abdominal constriction (non-responders) at 30 mg/kg is 100%.

Question: With C[C@@H]1[C@@H]2c3c([nH]c4ccccc34)CC[C@@H]2CN1C (relative stereo) [Compound 69, (±)-1α,3aβ,10cβ-1,2,3,3a,4,5,6,10c-Octahydro-1,2-dimethylpyrrolo-[3,4-c]carbazole] as the molecule, how does the responders at 30 mg/kg [1, 4] read?
Answer: The responders at 30 mg/kg was 100%.

Question: With CN1C[C@@H]2CCc3[nH]c4ccccc4c3[C@H]2C1 (relative stereo) [Compound 72, (±)-3aα,10cβ-1,2,3,3a,4,5,6,10c-Octahydro-2-methylpyrrolo-[3,4-c]carbazole Fumarate [1.0:0.55]] as the molecule, how does the responders at 30 mg/kg [1, 5] read?
Answer: The responders at 30 mg/kg was 100%.

Question: With CN1C[C@@H]2CCc3[nH]c4ccc(C#N)cc4c3[C@@H]2C1 (relative stereo) [Compound 73, (±)-3aα,10cα-1,2,3,3a,4,5,6,10c-Octahydro-9-cyano-2-methylpyrrolo-[3,4-c]carbazole] as the molecule, how does the % of mice protected from abdominal constriction (non-responders) at 30 mg/kg [1, 4] read?
Answer: The % of mice protected from abdominal constriction (non-responders) at 30 mg/kg was 100%.

Question: Which responders at 30 mg/kg [1, 5] does the source give for C[C@@H]1C[C@H]2CN(C)C[C@H]2c2c1[nH]c1ccccc21 (relative stereo) [Compound 88, (±)-3aα,5α,10cα-4,5,6,10c-Octahydro-2,5-dimethylpyrrolo[3,4-c]carbazole] here?
Answer: The responders at 30 mg/kg was 93%.

Question: With C[C@H]1C[C@H]2CN(C)C[C@H]2c2c1[nH]c1ccccc21 (relative stereo) [Compound 89, (±)-3aα,5β,10cα-4,5,6,10c-Octahydro-2,5-dimethylpyrrolo[3,4-c]carbazole] as the molecule, how does the responders at 30 mg/kg [1, 4] read?
Answer: The responders at 30 mg/kg was 100%.

Question: Which responders at 30 mg/kg [1, 4] does the source give for CN1CC2CCc3[nH]c4ccccc4c3C2C1 (single isomer, unassigned) [Compound 57] here?
Answer: The responders at 30 mg/kg was 100%.

Question: For COc1cccc(C2(O)CCCCC2CN(C)C)c1 (stereo not shown) [tramadol, reference compound], which ED50 [2] is on record?
Answer: The ED50 was 1.7 mg/kg.

Question: And the ED50 [1]?
Answer: The ED50 was 5.4 mg/kg.

Question: What about the ED50 [3] of the same molecule?
Answer: The ED50 was 28.3 mg/kg.
